We go through 5 compounds from US20120276186A1, “SUSTAINED RELEASE LATANOPROST IMPLANT” (priority 2011, published 2012).

A short description of one data set: solubility parameter. It counts as physicochemical. An excerpt: The solubility parameter for a substance is a numerical value which indicates the relative solvency behavior of that substance. The concept is discussed and defined in US 2008/0145403.
Latanoprost is very difficult to incorporate into biodegradable polymer matrices, because it is an oil. It has now been discovered, that this problem can be overcome by using a combination of high molecular weight PLA and PLGA polymers and fabricating the implant by melt extrusion or casting in an appropriate solvent. The oily drug substance (DS), i.e. latanoprost, helps plasticize the polymer and allows the production of a homogeneous polymer film. […] It has been determined that dichloromethane is a good solvent for PLA and PLGA, which have solubility parameters of about 21.1 MPa^0.5 and about 22.1 MPa^0.5, respectively. Thus, a solvent having a solubility parameter of from 17.1 to 26.1 MPa^0.5, preferably from 17.6 to 25.6, e.g. 21.1 or 22.1 MPa^0.5 may be used in the practice of this invention. Such solvents may include dichloromethane, isopropanol, ethanol, acetonitrile and octanol.

The conditions of data set [1]: cited from earlier work.

As for `CC(C)OC(=O)CCC/C=C\C[C@@H]1[C@@H](CC[C@@H](O)CCc2ccccc2)[C@H](O)C[C@@H]1O` [Latanoprost], the solubility parameter in “solubility parameter” is reported as 22-24 MPa^0.5. The “solubility in organic solvents” value in data set [1] (acetone, ethanol, ethyl acetate, isopropanol, methanol and octanol) is “freely soluble”. Further, in data set [1] (acetonitrile), the solubility in acetonitrile result is given as “very soluble”. Moreover, the solubility in water entry in data set [1] (water) is listed as “practically insoluble”.

For `ClCCl` [dichloromethane], the solubility parameter in “solubility parameter” amounted to 19.8 MPa^0.5.

With PEG 3350, the solubility parameter result in the data set “solubility parameter” is “about 20 MPa^0.5”.

Take poly(D,L-lactide) [PLA]: the solubility parameter result in the data set “solubility parameter” is “about 21.1 MPa^0.5”.

Turning to poly(D,L-lactide-co-glycolide) [PLGA], the solubility parameter entry in “solubility parameter” is recorded as “about 22.1 MPa^0.5”.
